Test system: HUVEC/MSC spheroids viability
Assay: Human HUVEC/MSC cell line growth inhibition [KRAS2];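 as to viability, T/C: percent of DMSO vehicle control luminescence so 100% = untreated viability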
Details: for IC50: curve of first compound; for viability, T/C: stronger effect = lower value
Summary of the method: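 Spheroids of pooled-donor HUVEC and hMSC (passage ≤5) without tumour cells were treated with KRAS-pathway inhibitors alone and combined with targeted agents. Top concentration was at or near clinical Cmax, or 10 microM when Cmax was unknown, descending in half-log steps.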

[1] = second compound 0.0316 µM, first compound 0.0316 µM
[2] = second compound 0.0316 µM, first compound 0.1 µM
[3] = second compound 0.0316 µM, first compound 0.316 µM
[4] = second compound 0.0316 µM, first compound 1 µM
[5] = second compound 0.1 µM, first compound 0.0316 µM
[6] = second compound 0.1 µM, first compound 0.1 µM
[7] = second compound 0.1 µM, first compound 0.316 µM
[8] = second compound 0.1 µM, first compound 1 µM
[9] = second compound 0.316 µM, first compound 0.0316 µM
[10] = second compound 0.316 µM, first compound 0.1 µM
[11] = second compound 0.316 µM, first compound 0.316 µM
[12] = second compound 0.316 µM, first compound 1 µM
[13] = second compound 1 µM, first compound 0.0316 µM
[14] = second compound 1 µM, first compound 0.1 µM
[15] = second compound 1 µM, first compound 0.316 µM
[16] = second compound 1 µM, first compound 1 µM
[17] = second compound 3.16 µM, first compound 0.0316 µM
[18] = second compound 3.16 µM, first compound 0.1 µM
[19] = second compound 3.16 µM, first compound 0.316 µM
[20] = second compound 3.16 µM, first compound 1 µM
[21] = second compound 10 µM, first compound 0.0316 µM
[22] = second compound 10 µM, first compound 0.1 µM
[23] = second compound 10 µM, first compound 0.316 µM
[24] = second compound 10 µM, first compound 1 µM
[25] = second compound 0.0316 µM, first compound 0.00316 µM
[26] = second compound 0.0316 µM, first compound 0.01 µM
[27] = second compound 0.1 µM, first compound 0.00316 µM
[28] = second compound 0.1 µM, first compound 0.01 µM
[29] = second compound 0.316 µM, first compound 0.00316 µM
[30] = second compound 0.316 µM, first compound 0.01 µM
[31] = second compound 1 µM, first compound 0.00316 µM
[32] = second compound 1 µM, first compound 0.01 µM
[33] = second compound 3.16 µM, first compound 0.00316 µM
[34] = second compound 3.16 µM, first compound 0.01 µM
[35] = second compound 10 µM, first compound 0.00316 µM
[36] = second compound 10 µM, first compound 0.01 µM

Structure (SMILES): CC1(C)CCC(CN2CCN(c3ccc(C(=O)NS(=O)(=O)c4ccc(NCC5CCOCC5)c([N+](=O)[O-])c4)c(Oc4cnc5[nH]ccc5c4)c3)CC2)=C(c2ccc(Cl)cc2)C1 + COc1cc2nc(C)nc(NC(C)c3cc(N)cc(C(F)(F)F)c3)c2cc1OC1CCOC1
- IC50 (second compound 0.0316 µM): 5.09 µM
- IC50 (second compound 0.1 µM): 4.59 µM
- IC50 (second compound 0.316 µM): 4.78 µM
- IC50 (second compound 1 µM): 5.01 µM
- IC50 (second compound 3.16 µM): 5.49 µM
- IC50 (second compound 10 µM): 4.61 µM
- viability, T/C [1]: 105%
- viability, T/C [2]: 116%
- viability, T/C [3]: 105%
- viability, T/C [4]: 96.6%
- viability, T/C (second compound 0.0316 µM, first compound 3.16 µM): 82.3%
- viability, T/C (second compound 0.0316 µM, first compound 10 µM): 6.99%
- viability, T/C [5]: 98.5%
- viability, T/C [6]: 94.6%
- viability, T/C [7]: 102%
- viability, T/C [8]: 100%
- viability, T/C (second compound 0.1 µM, first compound 3.16 µM): 72.8%
- viability, T/C (second compound 0.1 µM, first compound 10 µM): 2.34%
- viability, T/C [9]: 82.7%
- viability, T/C [10]: 104%
- viability, T/C [11]: 76.6%
- viability, T/C [12]: 81.5%
- viability, T/C (second compound 0.316 µM, first compound 3.16 µM): 76.3%
- viability, T/C (second compound 0.316 µM, first compound 10 µM): 5.03%
- viability, T/C [13]: 95.7%
- viability, T/C [14]: 79.5%
- viability, T/C [15]: 84%
- viability, T/C [16]: 92%
- viability, T/C (second compound 1 µM, first compound 3.16 µM): 81%
- viability, T/C (second compound 1 µM, first compound 10 µM): 3.29%
- viability, T/C [17]: 73.1%
- viability, T/C [18]: 105%
- viability, T/C [19]: 110%
- viability, T/C [20]: 95.2%
- viability, T/C (second compound 3.16 µM, first compound 3.16 µM): 87.7%
- viability, T/C (second compound 3.16 µM, first compound 10 µM): 8.97%
- viability, T/C [21]: 61.3%
- viability, T/C [22]: 70.5%
- viability, T/C [23]: 78.9%
- viability, T/C [24]: 68.2%
- viability, T/C (second compound 10 µM, first compound 3.16 µM): 80.6%
- viability, T/C (second compound 10 µM, first compound 10 µM): 5.02%

Structure (SMILES): CCN1CCN(Cc2ccc(Nc3ncc(F)c(-c4cc(F)c5nc(C)n(C(C)C)c5c4)n3)nc2)CC1 + COc1cc2nc(C)nc(NC(C)c3cc(N)cc(C(F)(F)F)c3)c2cc1OC1CCOC1
- IC50 (second compound 0.0316 µM): > 1 µM
- IC50 (second compound 0.1 µM): > 1 µM
- IC50 (second compound 0.316 µM): > 1 µM
- IC50 (second compound 1 µM): > 1 µM
- IC50 (second compound 3.16 µM): > 1 µM
- IC50 (second compound 10 µM): > 1 µM
- viability, T/C [25]: 93.3%
- viability, T/C [26]: 77%
- viability, T/C [1]: 87.6%
- viability, T/C [2]: 80.3%
- viability, T/C [3]: 93.4%
- viability, T/C [4]: 122%
- viability, T/C [27]: 77.7%
- viability, T/C [28]: 90.9%
- viability, T/C [5]: 83.1%
- viability, T/C [6]: 73.7%
- viability, T/C [7]: 105%
- viability, T/C [8]: 106%
- viability, T/C [29]: 72.5%
- viability, T/C [30]: 92.5%
- viability, T/C [9]: 79.4%
- viability, T/C [10]: 79%
- viability, T/C [11]: 96.1%
- viability, T/C [12]: 121%
- viability, T/C [31]: 76.1%
- viability, T/C [32]: 68.8%
- viability, T/C [13]: 71.2%
- viability, T/C [14]: 77.2%
- viability, T/C [15]: 95.7%
- viability, T/C [16]: 117%
- viability, T/C [33]: 65.8%
- viability, T/C [34]: 74.4%
- viability, T/C [17]: 65.4%
- viability, T/C [18]: 69.9%
- viability, T/C [19]: 77%
- viability, T/C [20]: 103%
- viability, T/C [35]: 63.7%
- viability, T/C [36]: 76.7%
- viability, T/C [21]: 65.7%
- viability, T/C [22]: 56.4%
- viability, T/C [23]: 66.5%
- viability, T/C [24]: 75%

Structure (SMILES): Cn1ncnc1[C@H]1c2n[nH]c(=O)c3cc(F)cc(c23)N[C@@H]1c1ccc(F)cc1 + COc1cc2nc(C)nc(NC(C)c3cc(N)cc(C(F)(F)F)c3)c2cc1OC1CCOC1
- IC50 (second compound 0.0316 µM): > 0.1 µM
- IC50 (second compound 0.1 µM): > 0.1 µM
- IC50 (second compound 0.316 µM): > 0.1 µM
- IC50 (second compound 1 µM): > 0.1 µM
- IC50 (second compound 3.16 µM): > 0.1 µM
- IC50 (second compound 10 µM): > 0.1 µM
- viability, T/C (second compound 0.0316 µM, first compound 0.000316 µM): 107%
- viability, T/C (second compound 0.0316 µM, first compound 0.001 µM): 110%
- viability, T/C [25]: 118%
- viability, T/C [26]: 89.7%
- viability, T/C [1]: 109%
- viability, T/C [2]: 96.8%
- viability, T/C (second compound 0.1 µM, first compound 0.000316 µM): 89.2%
- viability, T/C (second compound 0.1 µM, first compound 0.001 µM): 96.9%
- viability, T/C [27]: 100%
- viability, T/C [28]: 117%
- viability, T/C [5]: 96%
- viability, T/C [6]: 107%
- viability, T/C (second compound 0.316 µM, first compound 0.000316 µM): 92.9%
- viability, T/C (second compound 0.316 µM, first compound 0.001 µM): 101%
- viability, T/C [29]: 102%
- viability, T/C [30]: 103%
- viability, T/C [9]: 97.3%
- viability, T/C [10]: 89.3%
- viability, T/C (second compound 1 µM, first compound 0.000316 µM): 95.2%
- viability, T/C (second compound 1 µM, first compound 0.001 µM): 89.9%
- viability, T/C [31]: 99.3%
- viability, T/C [32]: 88.9%
- viability, T/C [13]: 89.3%
- viability, T/C [14]: 79.5%
- viability, T/C (second compound 3.16 µM, first compound 0.000316 µM): 90.9%
- viability, T/C (second compound 3.16 µM, first compound 0.001 µM): 104%
- viability, T/C [33]: 85.8%
- viability, T/C [34]: 101%
- viability, T/C [17]: 92.3%
- viability, T/C [18]: 81.1%
- viability, T/C (second compound 10 µM, first compound 0.000316 µM): 72%
- viability, T/C (second compound 10 µM, first compound 0.001 µM): 75.9%
- viability, T/C [35]: 81.9%
- viability, T/C [36]: 66.8%
- viability, T/C [21]: 77.6%
- viability, T/C [22]: 73.3%

Reference: PubChem BioAssay AID2060912 (Molecular Pharmacology Branch, DTP, NCI, 2025)
